Measurements: patent US4871766A, “Oil-in-water pesticidal emulsion” (priority 1986, dated 1989)

How the values were obtained:
[1] = Solubility of active ingredient in hydrocarbon at 0° C.; type: physicochemical
[2] = Behaviour of active ingredient on storage at 0° C.; type: physicochemical; settings: stored at 0° C. for a long time

For `CC(C)C(C(=O)OC(C#N)c1cccc(Oc2ccccc2)c1)c1ccc(Cl)cc1` (stereo not drawn) [active ingredient (f), α-Cyano-3-phenoxybenzyl 2-(4-chlorophenyl)-3-methylbutyrate], the “solubility in the hydrocarbon (3)” value [1] was ≥ 50 wt. %.

With `CC1(C)C(C(=O)OC(C#N)c2cccc(Oc3ccccc3)c2)C1(C)C` (stereo not drawn) [active ingredient (e), α-Cyano-3-phenoxybenzyl 2,2,3,3-tetramethylcyclopropanecarboxylate] the “solubility in the hydrocarbon (3)” value [1] was ≥ 50 wt. %.

With `CC1(C)C(C=C(Cl)Cl)C1C(=O)OC(C#N)c1cccc(Oc2ccccc2)c1` (stereo not drawn) [active ingredient (b), α-Cyano-3-phenoxybenzyl 3-(2,2-dichlorovinyl)-2,2-dimethylcyclopropanecarboxylate] the “crystallization of the active ingredient on storage” value [2] was “crystallizes in part”.

For `CC(COc1ccc(Oc2ccccc2)cc1)Oc1ccccn1` (stereo not drawn) [active ingredient (h), 2-{1-Methyl-2-(4-phenoxyphenoxy)ethoxy}pyridine], the “solubility in the hydrocarbon (6)” value ([1]; hydrocarbon (6)) was 10 wt. %.

In the case of `CCC(C)c1ccccc1OC(=O)NC` (stereo not drawn) [active ingredient (a), 2-Sec-butylphenyl N--methylcarbamate], the “solubility in the hydrocarbon (5)” value ([1]; hydrocarbon (5)) is reported as ≥ 50 wt. %.

For `CC1(C)C(C=C(Cl)Cl)C1C(=O)OCc1cccc(Oc2ccccc2)c1` (stereo not drawn) [active ingredient (d), 3-Phenoxybenzyl 3-(2,2-dichlorovinyl)-2,2-dimethylcyclopropanecarboxylate], the “solubility in the hydrocarbon (4)” value ([1]; hydrocarbon (4)) was ≥ 50 wt. %.
